Source: patent publication US20020192201A1, “Crohn's disease treatment methods” (priority 1998, published 2002)
Read-outs that look alike come from different tables or passages of the source.

What was measured:
[1] = test system: M. para. isolated from resected tissue of CD patients; experiment: in vitro test of seven antituberculosis drugs against M. para. using the Bactec system; assay type: cell-based, Mycobacterium paratuberculosis; conditions: for MIC50 (50% M. para. cells inhibited or killed) / MIC99.9 (99.9% M. para. cells inhibited or killed): M. para. from resected tissue of CD patients
[2] = test system: MAP-positive and MAP-negative Crohn's disease patients (ELISA); experiment: comparison of age-matched MAP-positive and MAP-negative patients at 1 year (CDAI); assay type: in vivo, human
Description: Another study was undertaken to compare age-matched MAP-positive and -negative patients utilizing ELISA analysis forserum antibodies to MAP. 10 MAP-positive and 10 MAP-negative patients were compared at 1 year, utilizing the CDAI score as a primary endpoint. The elimination of corticosteroids and the need for immunotherapy were considered secondary endpoints. […] Steroids were eliminated in 8 of 10 patients, with 2 patients requiring low-dose steroids. In the MAP-negative group at 1 year, 6 of 10 patients were in complete remission, with an entry CDAI score of 308 and an exit score of 179. Of the responsive patients, 3 of 6 required additional immunotherapy, and 3 remained on antibiotics alone.

[H]/N=C(/N)N[C@H]1[C@H](O)[C@@H](O)[C@H](O[C@@H]2O[C@@H](C)[C@](O)(C=O)[C@H]2O[C@@H]2O[C@@H](CO)[C@H](O)[C@@H](O)[C@@H]2NC)[C@@H](N/C(N)=N\[H])[C@@H]1O [ST, streptomycin]
Status (resistant/sensitive) ([1]; Bactec system): R
MIC50 (50% M. para. cells inhibited or killed) ([1]; Bactec system): >0.4 µg/mL
MIC99.9 (99.9% M. para. cells inhibited or killed) ([1]; Bactec system): >3.0 µg/mL

NC(=O)c1cnccn1 [PZA, pyrazinamide]
Status (resistant/sensitive) ([1]; Bactec system): R
MIC50 (50% M. para. cells inhibited or killed) ([1]; Bactec system): >20 µg/mL
MIC99.9 (99.9% M. para. cells inhibited or killed) ([1]; Bactec system): >20 µg/mL

CC[C@H]1OC(=O)[C@H](C)[C@@H](O[C@H]2C[C@@](C)(OC)[C@@H](O)[C@H](C)O2)[C@H](C)[C@@H](O[C@@H]2O[C@H](C)C[C@H](N(C)C)[C@H]2O)[C@](C)(OC)C[C@@H](C)C(=O)[C@H](C)[C@@H](O)[C@]1(C)O [CLR, clarithromycin]
Status (resistant/sensitive) [1]: S
MIC50 (50% M. para. cells inhibited or killed) ([1]; Bactec system): <0.25 µg/mL
MIC99.9 (99.9% M. para. cells inhibited or killed) ([1]; Bactec system): <1.25 µg/mL

NNC(=O)c1ccncc1 [INH, isoniazid]
Status (resistant/sensitive) ([1]; Bactec system): R
MIC50 (50% M. para. cells inhibited or killed) ([1]; Bactec system): >20 µg/mL
MIC99.9 (99.9% M. para. cells inhibited or killed) ([1]; Bactec system): >20 µg/mL

NC[C@H]1O[C@H](O[C@H]2[C@H](O)[C@@H](O[C@H]3O[C@H](CO)[C@@H](O)[C@H](N)[C@H]3O)[C@H](N)C[C@@H]2N)[C@H](O)[C@@H](O)[C@@H]1O [KM, kanamycin]
Status (resistant/sensitive) ([1]; Bactec system): R
MIC50 (50% M. para. cells inhibited or killed) ([1]; Bactec system): <1.3 µg/mL
MIC99.9 (99.9% M. para. cells inhibited or killed) ([1]; Bactec system): <3.0 µg/mL

CO[C@H]1/C=C/O[C@@]2(C)Oc3c(C)c(O)c4c(O)c(c(/C=N/N5CCN(C)CC5)c(O)c4c3C2=O)NC(=O)/C(C)=C\C=C\[C@H](C)[C@H](O)[C@@H](C)[C@@H](O)[C@@H](C)[C@H](OC(C)=O)[C@@H]1C [RIF, Rifampicin]
Status (resistant/sensitive) ([1]; Bactec system): R
MIC50 (50% M. para. cells inhibited or killed) ([1]; Bactec system): >1.0 µg/mL
MIC99.9 (99.9% M. para. cells inhibited or killed) ([1]; Bactec system): >2.6 µg/mL

infliximab
outcome in patients unresponsive to antibiotics [2]: induction of remission in all patients

CC[C@@H](CO)NCCN[C@@H](CC)CO [EMB, ethambutol]
Status (resistant/sensitive) ([1]; Bactec system): S
MIC50 (50% M. para. cells inhibited or killed) ([1]; Bactec system): <0.5 µg/mL
MIC99.9 (99.9% M. para. cells inhibited or killed) ([1]; Bactec system): <3.0 µg/mL
